This assay deals with mature cyclic rats. Kind of assay: Ovulation inhibition in rat (in vivo progestagenic activity). As to conditions: 96 h, minimal active dose: level at which average number of ova is reduced by 60% relative to placebo, oral administration for 1 complete cycle (4 days), read-out: MAD. On the procedure:
Ovulation inhibition after oral administration of the compounds of the invention was studied in mature cyclic rats. Animals were treated with test compound (oral administration) for 1 complete cycle (4 days, from oestrus to pro-oestrus) and the number of ova in the oviduct was microscopically assessed at autopsy in the morning of the next (expected) oestrus. The average number of ova per rat was calculated; the minimal active dose (MAD) is defined as the level at which the average number of ova is reduced by 60% relative to placebo-treated animals.
For the compound `N#Cc1c(F)cc2c(c1Cl)N1CCC[C@@H](NC(=O)C(F)(F)F)[C@@H]1c1ccc(F)cc1O2` [Example 5, (-)-(cis)-N-(6-chloro-7-cyano-8,12-difluoro-1,3,4,14b-tetrahydro-2H-dibenzo[b,f]pyrido[1,2-d][1,4]oxazepin-1-yl)-2,2,2-trifluoroacetamide], the minimal effective dose was no more than 0.025 mg/kg.

`N#Cc1c(F)cc2c(c1Cl)N1CCC[C@@H](NC(=O)C(F)(F)F)[C@@H]1c1ccccc1O2` [Example 3, (-)-(cis)-N-[6-chloro-7-cyano-8-fluoro-1,3,4,14b-tetrahydro-2H-dibenzo[b,f]pyrido[1,2-d][1,4]oxazepin-1-yl]-2,2,2-trifluoroacetamide]: the minimal effective dose stood at 0.08 mg/kg.

Regarding `CC(=O)N[C@H]1CCCN2c3c(cc(F)c(C#N)c3Cl)Oc3cccc(F)c3[C@H]12` (single isomer, unassigned) [Example 6, (-)-(cis)-N-(6-chloro-7-cyano-8,14-difluoro-1,3,4,14b-tetrahydro-2H-dibenzo[b,f]pyrido[1,2-d][1,4]oxazepin-1-yl)acetamide], the minimal effective dose was less than 0.02 mg/kg.

As for `N#Cc1cc2c(cc1F)Oc1cccc(F)c1[C@H]1[C@H](NC(=O)C(F)(F)F)CCCN21` [Example 8, (-)-(cis)-N-(7-cyano-8,14-difluoro-1,3,4,14b-tetrahydro-2H-dibenzo[b,f]pyrido [1,2-d][1,4]oxazepin-1-yl)-2,2,2-trifluoroacetamide], the minimal effective dose turned out to be 0.01 mg/kg.

Turning to `N#Cc1c(F)cc2c(c1Cl)N1CCC[C@@H](NC(=O)C(F)(F)F)[C@@H]1c1c(F)cccc1O2` [Example 9, (-)-(cis)-N-(6-chloro-7-cyano-8,14-difluoro-1,3,4,14b-tetrahydro-2H-dibenzo [b,f]pyrido[1,2-d][1,4]oxazepin-1-yl)-2,2,2-trifluoroacetamide], the minimal effective dose is less than 0.02 mg/kg.

As for `C=Cc1cccc2c1N1CCC[C@H](NC(=O)C(F)(F)F)[C@H]1c1ccccc1O2` (single isomer, unassigned) [eutomer of example 54 of WO03/084963, reference compound], the minimal effective dose was greater than 4 mg/kg. Take `N#Cc1c(F)cc2c(c1C#N)N1CCC[C@@H](NC(=O)C(F)(F)F)[C@@H]1c1ccccc1O2` [Example 4, (-)-(cis)-N-(6,7-dicyano-8-fluoro-1,3,4,14b-tetrahydro-2H-dibenzo[b,f]pyrido [1,2-d][1,4]oxazepin-1-yl)-2,2,2-trifluoroacetamide]: the minimal effective dose is 0.02 mg/kg.

For the compound `N#Cc1c(F)cc2c(c1Cl)N1CCC[C@H](NC(=O)C(F)(F)F)[C@H]1c1cccc(F)c1O2` (single isomer, unassigned) [Example 7, (-)-(cis)-N-(6-chIoro-7-cyano-8,11-difluoro-1,3,4,14b-tetrahydro-2H-dibenzo[b,f]pyrido[1,2-d][1,4]oxazepin-1-yl)-2,2,2-trifluoroacetamide], the minimal effective dose was determined as 0.025 mg/kg. The value for `N#Cc1cc2c(cc1F)Oc1ccccc1[C@@H]1[C@@H](NC(=O)C(F)(F)F)CCCN21` (single isomer, unassigned) [Example 2, (-)-(cis)-N-(7-cyano-8-fluoro-1,3,4,14b-tetrahydro-2H-dibenzo[b,f]pyrido[1,2-d] [1,4]oxazepin-1-yl)-2,2,2-trifluoroacetamide] was 0.014 mg/kg.

For the origin of these results see patent EP2066677B1, “PYRIDOOXAZEPINE PROGESTERON RECEPTOR MODULATORS” (N.V. Organon, priority 2006, dated 2008).
